± gives the standard deviation of the averaged measurements.
How the values were obtained:
[1] = system: THP-1 (vitamin D3 differentiated); assay: cAMP EC50 (HTRF); higher = lower potency; conditions: 20 min
Protocol: (§1)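 Vitamin-D3-differentiated THP-1 cells were treated 4 h with compounds (1:10 serial dilutions, top 100 uM). Two 8-gene QuantiGene Plex signatures were read out as TBP-normalised rscores; the cos_weight_AC signature score (% of 10 uM isoproterenol active control) was fitted by 4PL/nonparametric fit to give EC50, with constant fits assigned one log unit outside the tested range. cAMP EC50s come from a 20 min HTRF assay with IBMX at 37 °C, fitted with the same algorithm.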

[2] = system: THP-1 (vitamin D3 differentiated); assay: EC50 of beta-agonist gene-signature score cos_weight_AC (signature02); conditions: 4 h
Protocol: as §1

[3] = system: THP-1 (vitamin D3 differentiated); assay: EC50 of beta-agonist gene-signature score cos_weight_AC (signature01); conditions: 4 h
Protocol: as §1

Row | cAMP EC50 [1] [nM] | EC50 [2] [nM] | EC50 [3] [nM] | Structure (SMILES)
1 | < 0.01 | < 0.01 | < 0.01 | O=c1ccc2c([C@@H](O)CNCCCCCCOCC(F)(F)c3ccccc3)ccc(O)c2[nH]1 [Abediterol]
2 |  | 2310 | 2770 | C=C[C@@]1(C)CC(=O)[C@]2(O)[C@@]3(C)[C@@H](O)CCC(C)(C)[C@@H]3[C@H](O)[C@H](OC(C)=O)[C@@]2(C)O1 [Forskolin]
3 | 0.42 ± 0.14 | 6.13 | 1.46 | NC[C@H](O)c1ccc(O)c(O)c1 [Norepinephrine]
4 |  | 0.127 | 2.88 | COc1ccc(CC(C)(C)NC[C@H](O)c2cc(O)cc3c2OCC(=O)N3)cc1 [Olodaterol]
5 |  | 0.703 |  | CCC(NC(C)C)C(O)c1ccc(O)c2[nH]c(=O)ccc12 (centres undefined) [Procaterol]
6 | 349 ± 260 | 230 | 216 | CC(C)(C)NCC(O)c1cc(O)cc(O)c1 (centres undefined) [Terbutaline]
7 | < 0.01 | 5.86 | 5.65 | OCc1cc([C@@H](O)CNCCCCCCOCCOCc2c(Cl)cccc2Cl)ccc1O [Vilanterol]

The next lines start with the molecule.

Row | Structure (SMILES) | cAMP EC50 [1] [nM] | EC50 [2] [nM] | EC50 [3] [nM]
8 | CC(Cc1ccc(OCC(=O)O)cc1)NCC(O)c1cccc(Cl)c1 (centres undefined) | 50.1 ± 31 | 167 | 421
9 | Cn1cc(C(F)(F)F)nc1-c1ccc(OCC(O)CNCCOc2ccc(O)c(C(N)=O)c2)cc1 (centres undefined) | > 100000 | > 100000 | > 100000
10 | CNC[C@H](O)c1ccc(O)c(O)c1 [Adrenaline] |  | 68.1 | 64.7
11 | COc1cc(NC(=O)CCN2CCC(OC(=O)Nc3ccccc3-c3ccccc3)CC2)c(Cl)cc1CNC[C@H](O)c1ccc(O)c2[nH]c(=O)ccc12 [Batefenterol] |  |  | 0.265
12 | CC(CCc1ccc(O)cc1)NCCc1ccc(O)c(O)c1 (centres undefined) [Dobutamine] | 1.38 ± 0.91 |  | 8.15
13 | Oc1ccc(CCNCCCCCCNCCc2ccccc2)cc1O [Dopexamine] | 13900 ± 12000 |  | 
14 | CC(Cc1ccc(O)cc1)NCC(O)c1cc(O)cc(O)c1 (centres undefined) [Fenoterol] | 1.75 ± 1.5 | 3.65 | 8.21
15 | COc1ccc(CC(C)NCC(O)c2ccc(O)c(NC=O)c2)cc1 (centres undefined) [Formoterol] | 0.0101 | 0.108 | 0.254
16 | CCC(NC(C)C)C(O)c1ccc(O)c(O)c1 (centres undefined) [Isoetharine] |  | 48.4 | 32.1
17 | CC(C)NCC(O)c1cc(O)cc(O)c1 (centres undefined) [Metaproterenol] | 5.17 ± 2.3 |  | 21.6
18 | CNCCc1cnc[nH]1 [N-alpha-methylhistamine] | 180 ± 26 | 234 | 248
19 | CC(NCCc1ccc(O)cc1)C(O)c1ccc(O)cc1 (centres undefined) [Ritodrine] | 624 ± 160 | 294 | 295
20 | CC(C)(C)NCC(O)c1ccc(O)c(CO)c1 (centres undefined) [Salbutamol] | 10.6 ± 9.1 | 64.6 | 98.5
21 | COc1cc(C[C@@H]2NCCc3cc(O)c(O)cc32)cc(OC)c1OC [Tretoquinol] |  |  | 0.237
22 | CC(C)(C)NCC(O)c1ccccc1Cl (centres undefined) [Tulobuterol] | 32.1 ± 20 | 215 | 
23 | CC(C)(Cc1ccccc1)NCC(O)c1ccc(O)c(NS(C)(=O)=O)c1 (centres undefined) [Zinterol] | < 0.01 | 0.567 | 3.48

Source: the supplement of paper PMC7295968
